These are literature values, as cited in patent US9839604B1, “Composition for an anti-aging treatment” (Parham Tabibian, MD, Inc., priority 2014, dated 2017).

The conditions of data set [1]: compared with other forms of Vitamin K1 and K2, also remains in the bloodstream longer.
The conditions of data set [2]: humectant capacity.

On to `CC(C)=CCC/C(C)=C/CC/C(C)=C/CC/C(C)=C/CC/C(C)=C/CC/C(C)=C/CC/C(C)=C/CC1=C(C)C(=O)c2ccccc2C1=O` [MK-7], for which the “levels reached in the bloodstream relative to other forms of Vitamin K1 and K2” value in data set [1] was “seven- to eight-fold higher”.
As for hyaluronic acid, the “water attracted and bound” value in data set [2] is “up to 1800 times its own weight in water”.
